# From paper PMC9775191, “A Subset Screen of the Compounds Australia Scaffold Library Identifies 7-Acylaminodibenzoxazepinones as Potent and Selective Hits for Anti-Giardia Drug Discovery” (Biomedicines, 2022)
# Tested on: G. duodenalis BRIS/91/HEPU/1279
# Assay: Primary Giardia screen at 10 µM (live-cell imaging, automated counting)
# Assay type: cell-based, Giardia duodenalis
# Experimental: Each compound was assessed in singlicate, at a final concentration of 10 μM (0.4 μL of a 5 mM stock; diluted to a final volume of 200 μL in culture medium; 0.2% DMSO). […] Plates were incubated in sealed chambers filled with 3% O2, 5% CO2 in N2 and growth was assessed at 24 and 48 h using live cell imaging and automated counting as previously described. Growth inhibition was calculated by subtracting media only background counts and determining percentage growth relative to vehicle (0.2% DMSO) controls. The reliability of these assays was assessed by calculating Z’ factors for each plate as previously described.
SMILES,"% Inhibition n=1 48h (48 h, first singlicate assay) [%]",also measured
Cc1ccc(-c2nc3ncccn3c2NC(=O)c2ccc(C(F)(F)F)cc2)cc1 [SN00793355],13.4,–
COc1ccc(NC(=O)c2cc(C(F)(F)F)n(C)n2)cc1 [SN00786766],0.0,–
CC1CC(C)CN(CCCNC(=O)C2CC3CCCN3C23C(=O)Nc2ccccc23)C1 (centres unmarked) [SN00787674],38.8,–
Cc1nc(N2CCCCC2)cc(N2CCN(C(=O)c3cccc(F)c3)CC2)n1 [SN00786431],7.0,–
CCOc1cccc(CC(=O)Nc2ccc3c(c2)C(=O)N(C)C2=NCCN23)c1OCC [SN00789358],35.6,–
Cc1cccc(-c2cc(N3CCN(C(=O)c4cc(Cl)ccc4F)CC3)ncn2)c1 [SN00798065],47.1,–
O=C(c1ccccc1)N1CCN(c2cc(-c3ccc(Cl)cc3)n[nH]2)CC1 [SN00800335],14.4,–
CCOC(=O)N1CCN(c2nc(-c3cccs3)cc(C(F)(F)F)n2)CC1 [SN00784268],21.6,–
CCOC(=O)c1cccc(NC(=O)c2cnc(C)nc2C)c1 [SN00790942],0.0,–
CSc1ccc(Cl)c(C(=O)N2CCCN(C(=O)c3ccncc3)CC2)c1 [SN00771952],45.6,–
CCc1onc(C)c1C1CCCN1C(=O)c1ccc2c(c1)OCO2 (centres unmarked) [SN00793852],6.6,–
COc1ccccc1-c1noc(Cn2cnc3c(nnn3Cc3ccccc3)c2=O)n1 [SN00790613],6.5,–
COCCNc1c(-c2ccc(O)cc2)nc2sc3cc(C)ccc3n12 [SN00795351],0.0,–
Cc1csc(-c2ccc(CNC(=O)c3n[nH]c4ccccc34)cc2)n1 [SN00799624],25.2,–
CCNC(=O)C1CCCN1C(=O)c1cccc(NC(=O)c2ccc(Br)cc2)c1 (centres unmarked) [SN00794777],0.0,–
Cc1ccc(NC(=O)c2nnc(C3CCCN3C(=O)NC3CCCC3)s2)cc1 (centres unmarked) [SN00790483],4.4,–
CCC1c2ccsc2CCN1C(=O)c1cc(-c2csc(C)n2)c[nH]1 (centres unmarked) [SN00778239],3.8,–
CCCN(C)C(=O)Cn1c(=O)n(-c2ccc(F)cc2)c(=O)c2ccccc21 [SN00802614],32.9,–
CCc1nnc(NC(=O)c2ccsc2-n2c(C)ccc2C)s1 [SN00776389],11.7,–
CN1C(=O)c2cc(NC(=O)c3ccc4c(c3)OCO4)ccc2N2CCN=C12 [SN00784190],31.6,–
O=C(N[C@H]1C[C@@H]2C[C@H]1CN2S(=O)(=O)c1ccc2c(c1)CCCC2)c1cccnc1 [SN00800980],0.6,–
Cc1nc(-c2ccncc2)nc2c1CCC(=O)N2CCC1=CCCCC1 [SN00802205],0.0,–
COc1cc(-c2c(Nc3ccccc3)oc3c2c(=O)n(C)c(=O)n3C)cc(OC)c1OC [SN00788648],0.0,–
C=CCn1c(=O)c(N2CCC(NC(=O)NC3CCCC3)CC2)nc2cccnc21 [SN00797341],6.8,–
Cc1oc2ncn(C(C)c3ccccc3)c(=O)c2c1C(=O)Nc1ccc(S(N)(=O)=O)nc1 (centres unmarked) [SN00788415],0.0,–
Cc1cccc(NC(=O)NC2CCN(c3nc(C)cc(C)n3)CC2)c1 [SN00786006],33.8,–

SMILES,"% Inhibition n=1 48h (48 h, first singlicate assay) [%]",also measured
CCOC(=O)CC(=O)Nc1ccc(-c2onc3c2CCc2cc(OC)ccc2-3)cc1 [SN00802675],5.3,–
CCNC(=O)N1CCCC(c2cccc(C(=O)NCCC3=CCCCC3)c2)C1 (centres unmarked) [SN00790923],6.9,–
O=C(NCC1CCCO1)Nc1ccc2sc(NS(=O)(=O)c3ccccc3)nc2c1 (centres unmarked) [SN00797600],23.5,–
Cc1sc2nc(CN3CCC(C)CC3)nc(N(C)Cc3nc4ccsc4c(=O)[nH]3)c2c1C [SN00775403],11.1,–
COc1ccccc1NC(=O)N1Cc2c(sc3c2CCN(C)C3)-n2cccc2C1C (centres unmarked) [SN00791542],24.5,–
COc1ccc(-n2nnnc2C2(N3CCOCC3)CCCCC2)cc1 [SN00794159],0.0,–
Cc1ccc(NC(=O)c2ccc(=O)n(CCN3CCOCC3)n2)cc1 [SN00793573],2.3,–
O=C(Cc1ccccc1F)N1CCC(Nc2cccnc2)C1 (centres unmarked) [SN00801060],18.5,–
COc1ccc(N2C(=O)c3ccncc3C2=O)c(OC)c1 [SN00807767],28.6,–
CC(=O)C1=C(C)NC(=O)NC1c1ccc(Cl)cc1 (centres unmarked) [SN00783317],2.8,–
CCS(=O)(=O)c1ncc(N(Cc2ccco2)Cc2ccccc2F)c(C(=O)Nc2ccccc2)n1 [SN00786098],17.4,–
Cc1cccc2c1NC1(CCN(S(=O)(=O)c3ccc(C(C)(C)C)cc3)CC1)NC2=O [SN00802737],13.3,–
COc1cccc(CCC(=O)N2CCCC(c3nnc4n3CCCCC4)C2)c1 (centres unmarked) [SN00771943],2.6,–
CSc1ccc(CCNC(=O)c2ccc3c(c2)nc2n3CCOC2)cc1 [SN00792852],12.8,–
O=C(CCc1cnn(-c2ccccc2)c1)Nc1cc(C2CCOCC2)[nH]n1 [SN00782289],8.0,–
CCCOc1ccc(-c2noc(Cc3nc(-c4cccc(OC)c4)cs3)n2)cc1 [SN00797723],4.6,–
CCC(=O)N1CCCc2ccc(NS(=O)(=O)c3ccc(F)c(C)c3)cc21 [SN00792263],17.5,–
Nc1cc(C2CCNCC2)[nH]n1 [SN00781241],7.2,–
COc1ccc(-c2cc(N3CCN(C(=O)Cc4ccc(F)cc4)CC3)[nH]n2)cc1 [SN00800353],0.0,–
CC(=O)N1CCc2cc(C(=O)CN3CCN(c4ccc(C(F)(F)F)cc4[N+](=O)[O-])CC3)ccc21 [SN00785201],3.8,–
CN1CCN(Cc2nc3ccccc3c(=O)n2Cc2nc(-c3cccc([N+](=O)[O-])c3)cs2)CC1 [SN00770541],11.4,–
CCS(=O)(=O)c1nc2ccc(NS(=O)(=O)c3ccc4c(c3)OCCO4)cc2s1 [SN00797922],0.0,–
C=CCn1c(SCC(=O)N2CCCCC2)nc2scc(-c3ccco3)c2c1=O [SN00773666],5.6,–
O=C(c1cnccn1)N1CCCC1c1nc(-c2ccccc2)no1 (centres unmarked) [SN00801675],0.0,–
O=[N+]([O-])c1cccc(S(=O)(=O)N2CCCCCC2c2cccs2)c1 (centres unmarked) [SN00793864],25.8,–
CCc1nn(CC)c(=O)c2cc(S(=O)(=O)N3CCOCC3)cn12 [SN00800228],11.8,–

SMILES,"% Inhibition n=1 48h (48 h, first singlicate assay) [%]",also measured
N/C(=N/OCc1ncc(-c2cccs2)o1)c1ccc(Oc2ccc(F)cc2)nc1 [SN00781212],41.6,–
COc1ccccc1-c1nc(C2CCCN(C(=O)c3ccc(C(C)C)cc3)C2)no1 (centres unmarked) [SN00798647],0.0,–
COc1ccccc1-c1cc(C(=O)N2CCCN(c3ccc(=O)n(-c4ccc(C)c(C)c4)n3)CC2)[nH]n1 [SN00791007],8.7,–
O=C(c1ccc(F)cc1)N1CCCN(Cc2noc(-c3ccccc3)n2)CC1 [SN00794182],33.4,–
COc1cccc(-n2ccn3cc(-c4ccc(OC)c(OC)c4)nc3c2=O)c1 [SN00796018],36.9,–
O=[N+]([O-])c1ccccc1Sc1nnnn1C1CCOCC1 [SN00782002],15.2,"Average % Inhibition 24h (24 h): 6.2%; % Inhibition n=1 24h (24 h, first singlicate assay): 12.3%; % Inhibition n=2 24h (24 h, re-assessment): 0.0%; Average % Inhibition 48h (48 h): 8.6%; % Inhibition n=2 48h (48 h, re-assessment): 2.0%"
Cn1cc2c3c(cccc31)CN(C(=O)NC(C)(C)C)CC2 [SN00798578],7.2,–
CC(C)Cn1cc2c3c(cccc31)CN(C(=O)Cc1cccs1)CC2 [SN00798552],35.1,–
Cc1cnn(CC(C)NCc2nc(-c3ccccn3)no2)c1 (centres unmarked) [SN00782812],19.9,–
O=C(c1cn2ccccc2n1)N1CCN(c2ccccc2F)CC1 [SN00799900],4.9,–
Cc1cc(NC(=O)C2CCN(S(=O)(=O)c3c(C)n[nH]c3C)CC2)ccc1Br [SN00784824],11.8,–
CCCNC(=O)CN1CCN(c2nc3ccccn3c2[N+](=O)[O-])CC1 [SN00778045],31.4,–
O=c1n(Cc2cccc(Br)c2)nc2c(S(=O)(=O)N3CCOCC3)cccn12 [SN00798020],0.0,–
COc1ccc(CNc2nc(-c3cccc(OC)c3)no2)cc1 [SN00791772],0.0,–
O=C(COc1ccc(F)cc1)N1CCN(c2nc(CN3CCCC3)cs2)CC1 [SN00799511],1.1,–
CCc1ccc(CNC(=O)c2c[nH]nc2-c2ccc(Cl)cc2)cc1 [SN00791699],7.3,–
CC(C)(C)c1ccc(C(=O)N2CCC3(CC2)NC(c2ccccc2)=NO3)cc1 [SN00801741],0.0,–
COc1ccc(C2NC(=O)NC(C)=C2C(=O)c2ccccc2)cc1 (centres unmarked) [SN00802824],12.9,–
O=C(c1cn2ccnc(-c3ccccc3)c2n1)N1CCCCC1 [SN00801929],30.6,–
CCOc1cc(C(=O)Nc2ccc(C3=CSC4=NCCCN34)cc2)ccc1OC(F)F [SN00775741],4.5,–
CCCCS(=O)(=O)N1CCC(c2nnnn2-c2ccc(C)cc2)CC1 [SN00785962],0.0,–
CNC(=O)Cc1noc(-c2cccc(-n3cccn3)n2)n1 [SN00781149],4.9,–
Cc1ccc(-n2nnc(-c3nc(-c4ccc5c(c4)OCO5)no3)c2N)cc1 [SN00787754],0.0,–
Cn1cnc2cc(-c3noc(C4CCCO4)n3)ccc21 (centres unmarked) [SN00793699],22.8,–
Cc1nnc2n1CCN(C(=O)c1cnc(-c3ccccc3)s1)C2 [SN00807889],22.7,–
Cc1cccc(CC(=O)N2CCN(c3nc4cccnc4n(Cc4ccccc4)c3=O)CC2)c1 [SN00797319],38.8,–
